The source of these data is PMC5218480 (PLoS ONE, 2017).

The assay has as its system MV-4-11 cells. The experiment in a line: Gene expression microarray analysis (Affymetrix PrimeView) and GSEA. The format is cell-based, human. The arrangement: RFU PODN (11730768_x_at) / Fold change /veh PODN (11730768_x_at) / RFU LINC00158 (11744669_a_at) / Fold change /veh LINC00158 (11744669_a_at) / RFU DUSP10 (11751237_a_at) / Fold change /veh DUSP10 (11751237_a_at) / RFU ID3 (11757404_x_at) / Fold change /veh ID3 (11757404_x_at) / RFU PLEKHG5 (11737974_s_at) / Fold change /veh PLEKHG5 (11737974_s_at) / RFU LRRC4B (11730491_at) / Fold change /veh LRRC4B (11730491_at) / RFU GIMAP4 (11747438_a_at) / Fold change /veh GIMAP4 (11747438_a_at) / RFU KRT8 (11758183_x_at) / Fold change /veh KRT8 (11758183_x_at) / RFU CNN1 (11734310_a_at) / Fold change /veh CNN1 (11734310_a_at) / RFU VPS37D (11726825_at) / Fold change /veh VPS37D (11726825_at) / RFU C10orf10 (11716522_x_at) / Fold change /veh C10orf10 (11716522_x_at) / RFU KIR2DL2 /// KIR2DL4 /// KIR2DL5A /// KIR2DL5B /// KIR2DS1 /// KIR2DS2 /// KIR2DS3 /// KIR2DS4 /// KIR3DL3 /// KIR3DL3 /// KIR3DS1 (11738374_at) / Fold change /veh KIR2DL2 /// KIR2DL4 /// KIR2DL5A /// KIR2DL5B /// KIR2DS1 /// KIR2DS2 /// KIR2DS3 /// KIR2DS4 /// KIR3DL3 /// KIR3DL3 /// KIR3DS1 (11738374_at) / RFU C1QL1 (11718748_at) / Fold change /veh C1QL1 (11718748_at) / RFU TMPRSS4 (11747572_a_at) / Fold change /veh TMPRSS4 (11747572_a_at) / RFU HAMP (11756126_x_at) / Fold change /veh HAMP (11756126_x_at) / RFU RNFT2 (11725882_a_at) / Fold change /veh RNFT2 (11725882_a_at) / RFU NR4A2 (11747474_a_at) / Fold change /veh NR4A2 (11747474_a_at) / RFU ABCC12 (11746883_a_at) / Fold change /veh ABCC12 (11746883_a_at) / RFU TMEM136 (11760407_x_at) / Fold change /veh TMEM136 (11760407_x_at) / RFU CLDN22 /// WWC2 (11732394_at) / Fold change /veh CLDN22 /// WWC2 (11732394_at) / RFU HLA-DPB1 (11760878_x_at) / Fold change /veh HLA-DPB1 (11760878_x_at) / RFU SPINT1 (11716480_a_at) / Fold change /veh SPINT1 (11716480_a_at) / RFU GAP43 (11754022_s_at) / Fold change /veh GAP43 (11754022_s_at) / RFU A4GNT (11735810_at) / Fold change /veh A4GNT (11735810_at) / RFU PRB3 (11715151_x_at) / Fold change /veh PRB3 (11715151_x_at) / RFU TUBB4B (11761932_at) / Fold change /veh TUBB4B (11761932_at) / RFU CAPN14 (11732068_a_at) / Fold change /veh CAPN14 (11732068_a_at) / RFU TMCC2 (11721928_a_at) / Fold change /veh TMCC2 (11721928_a_at) / RFU IRGQ (11745062_a_at) / Fold change /veh IRGQ (11745062_a_at) / RFU FAM174B (11720279_a_at) / Fold change /veh FAM174B (11720279_a_at) / RFU TMPRSS4 (11748680_a_at) / Fold change /veh TMPRSS4 (11748680_a_at) / RFU FAM212B (11763350_a_at) / Fold change /veh FAM212B (11763350_a_at) / RFU PLEKHG5 (11743358_a_at) / Fold change /veh PLEKHG5 (11743358_a_at) / RFU ZSCAN30 (11745921_a_at) / Fold change /veh ZSCAN30 (11745921_a_at) / RFU CMKLR1 (11741424_a_at) / Fold change /veh CMKLR1 (11741424_a_at) / RFU LOC101060620 /// MAPK8IP1 (11723275_at) / Fold change /veh LOC101060620 /// MAPK8IP1 (11723275_at) / RFU SPTSSB (11747773_x_at) / Fold change /veh SPTSSB (11747773_x_at) / RFU PRSS12 (11739890_at) / Fold change /veh PRSS12 (11739890_at) / RFU BIN1 (11741810_x_at) / Fold change /veh BIN1 (11741810_x_at) / RFU WNT11 (11732464_a_at) / Fold change /veh WNT11 (11732464_a_at) / RFU C10orf10 (11716521_a_at) / Fold change /veh C10orf10 (11716521_a_at) / RFU C5orf56 (11738089_at) / Fold change /veh C5orf56 (11738089_at) / RFU CYB561 (11721691_x_at) / Fold change /veh CYB561 (11721691_x_at) / RFU ANKRD19P (11752326_a_at) / Fold change /veh ANKRD19P (11752326_a_at) / RFU OR2T12 /// OR2T33 /// OR2T8 (11738714_s_at) / Fold change /veh OR2T12 /// OR2T33 /// OR2T8 (11738714_s_at) / RFU VCAN (11748164_a_at) / Fold change /veh VCAN (11748164_a_at) / RFU JSRP1 (11732532_at) / Fold change /veh JSRP1 (11732532_at) / RFU KRTAP10-11 (11738290_x_at) / Fold change /veh KRTAP10-11 (11738290_x_at) / RFU MYO3A (11730013_a_at) / Fold change /veh MYO3A (11730013_a_at) / RFU EBF3 (11725865_a_at) / Fold change /veh EBF3 (11725865_a_at) / RFU CAMK2N1 (11719241_x_at) / Fold change /veh CAMK2N1 (11719241_x_at) / RFU C5orf56 (11738088_a_at) / Fold change /veh C5orf56 (11738088_a_at) / RFU OLFML3 (11715873_a_at) / Fold change /veh OLFML3 (11715873_a_at) / RFU LOC100653217 /// NTM (11731650_a_at) / Fold change /veh LOC100653217 /// NTM (11731650_a_at) / RFU MAPK11 (11762145_a_at) / Fold change /veh MAPK11 (11762145_a_at) / RFU FIZ1 (11724087_x_at) / Fold change /veh FIZ1 (11724087_x_at) / RFU OASL (11726364_x_at) / Fold change /veh OASL (11726364_x_at) / RFU SOX15 (11748057_x_at) / Fold change /veh SOX15 (11748057_x_at) / RFU CD79A (11719716_a_at) / Fold change /veh CD79A (11719716_a_at) / RFU HIST1H1D (11736915_at) / Fold change /veh HIST1H1D (11736915_at) / RFU CASKIN2 (11723855_a_at) / Fold change /veh CASKIN2 (11723855_a_at) / RFU LOC730098 (11760151_x_at) / Fold change /veh LOC730098 (11760151_x_at) / RFU OR4N2 (11742367_at) / Fold change /veh OR4N2 (11742367_at) / RFU PRRT2 (11749266_a_at) / Fold change /veh PRRT2 (11749266_a_at) / RFU SNX32 (11753110_a_at) / Fold change /veh SNX32 (11753110_a_at) / RFU CDHR5 (11726645_a_at) / Fold change /veh CDHR5 (11726645_a_at) / RFU RCAN1 (11760418_a_at) / Fold change /veh RCAN1 (11760418_a_at) / RFU FAM167A (11723789_a_at) / Fold change /veh FAM167A (11723789_a_at) / RFU FAM26E (11764081_at) / Fold change /veh FAM26E (11764081_at) / RFU ISYNA1 (11749810_s_at) / Fold change /veh ISYNA1 (11749810_s_at) / RFU ACY1 (11761880_at) / Fold change /veh ACY1 (11761880_at) / RFU 11764098_at / Fold change /veh 11764098_at / RFU SAMD14 (11745864_x_at) / Fold change /veh SAMD14 (11745864_x_at) / RFU NPB (11741838_a_at) / Fold change /veh NPB (11741838_a_at) / RFU TMPRSS6 (11731388_a_at) / Fold change /veh TMPRSS6 (11731388_a_at) / RFU KRTAP10-2 (11738614_at) / Fold change /veh KRTAP10-2 (11738614_at) / RFU ARHGAP8 /// PRR5-ARHGAP8 (11727945_x_at) / Fold change /veh ARHGAP8 /// PRR5-ARHGAP8 (11727945_x_at) / RFU KRTAP5-7 /// NADSYN1 (11734609_at) / Fold change /veh KRTAP5-7 /// NADSYN1 (11734609_at) / RFU RASL12 (11751679_a_at) / Fold change /veh RASL12 (11751679_a_at) / RFU CDKN2B (11736163_a_at) / Fold change /veh CDKN2B (11736163_a_at) / RFU PRF1 (11729649_at) / Fold change /veh PRF1 (11729649_at) / RFU, ZNF638 /// ZNF638-IT1 / Fold change vs veh, ZNF638 /// ZNF638-IT1 / RFU, PANK3 / Fold change vs veh, PANK3 / RFU, SH3YL1 / Fold change vs veh, SH3YL1 / RFU, ZEB2 / Fold change vs veh, ZEB2 / RFU, NRIP1 / Fold change vs veh, NRIP1 / RFU, PTTG1IP / Fold change vs veh, PTTG1IP / RFU, CAPN2 / Fold change vs veh, CAPN2 / RFU, MED14 / Fold change vs veh, MED14 / RFU, SNORA58 / Fold change vs veh, SNORA58 / RFU, C1orf63 / Fold change vs veh, C1orf63 / RFU, LRRFIP1 / Fold change vs veh, LRRFIP1 / RFU, NDUFAF7 / Fold change vs veh, NDUFAF7 / RFU, SLC12A2 / Fold change vs veh, SLC12A2 / RFU, IBTK / Fold change vs veh, IBTK / RFU, ESF1 / Fold change vs veh, ESF1 / Fold change vs veh, TMEM50B / RFU, TAOK1 / Fold change vs veh, TAOK1 / RFU, ACBD3 / Fold change vs veh, ACBD3 / RFU, TMA16 / Fold change vs veh, TMA16 / RFU, RWDD3 / Fold change vs veh, RWDD3 / RFU, BCAT1 / Fold change vs veh, BCAT1 / RFU, EDEM3 / Fold change vs veh, EDEM3 / RFU, TMEM33 / Fold change vs veh, TMEM33 / RFU, WDR75 / Fold change vs veh, WDR75 / RFU, AHCTF1 / Fold change vs veh, AHCTF1 / RFU, TFRC / Fold change vs veh, TFRC / RFU, ZDHHC17 / Fold change vs veh, ZDHHC17 / RFU, NOM1 / Fold change vs veh, NOM1 / RFU, ARL8B / Fold change vs veh, ARL8B / RFU, ZBTB11 / Fold change vs veh, ZBTB11 / RFU, TAMM41 / Fold change vs veh, TAMM41 / RFU, KIAA1704 /// LOC100996395 / Fold change vs veh, KIAA1704 /// LOC100996395 / RFU, ING1 / Fold change vs veh, ING1 / RFU, TRMT61B / Fold change vs veh, TRMT61B / RFU, FUBP3 / Fold change vs veh, FUBP3 / RFU, TP53 / Fold change vs veh, TP53 / RFU, TNKS2 / Fold change vs veh, TNKS2 / RFU, ZFP14 / Fold change vs veh, ZFP14 / RFU, ACTR2 / Fold change vs veh, ACTR2 / RFU, PPP3R1 / Fold change vs veh, PPP3R1 / RFU, PIK3R1 / Fold change vs veh, PIK3R1 / RFU, HNRNPA1 / Fold change vs veh, HNRNPA1 / RFU, RNF170 / Fold change vs veh, RNF170 / RFU, ZNF28 / Fold change vs veh, ZNF28 / RFU, RNGTT / Fold change vs veh, RNGTT / RFU, OGT / Fold change vs veh, OGT / RFU, BRD1 / Fold change vs veh, BRD1 / RFU, MARS / Fold change vs veh, MARS / RFU, ZNF655 / Fold change vs veh, ZNF655 / RFU, FAHD1 / Fold change vs veh, FAHD1 / RFU, BDP1 / Fold change vs veh, BDP1 / RFU, LRRCC1 / Fold change vs veh, LRRCC1 / RFU, ARID1A / Fold change vs veh, ARID1A / RFU, ZNF146 / Fold change vs veh, ZNF146 / RFU, ZNF330 / Fold change vs veh, ZNF330 / RFU, GPN3 / Fold change vs veh, GPN3 / RFU, C9orf123 / Fold change vs veh, C9orf123 / RFU, N4BP2L2 / Fold change vs veh, N4BP2L2 / RFU, ARFIP1 / Fold change vs veh, ARFIP1 / RFU, FAM179B / Fold change vs veh, FAM179B / RFU, BCL10 / Fold change vs veh, BCL10 / RFU, UHRF1BP1L / Fold change vs veh, UHRF1BP1L / RFU, BET1 / Fold change vs veh, BET1 / RFU, CNOT2 / Fold change vs veh, CNOT2 / RFU, ZNF268 / Fold change vs veh, ZNF268 / Fold change vs veh, ZNF507 / RFU, DGCR2 / Fold change vs veh, DGCR2 / RFU, WDSUB1 / Fold change vs veh, WDSUB1 / Fold change vs veh, HSP90B1 /// MIR3652 / RFU, ADSS / Fold change vs veh, ADSS / RFU, GK / Fold change vs veh, GK / RFU, ZNF148 / Fold change vs veh, ZNF148 / RFU, TAF9 / Fold change vs veh, TAF9 / RFU, SLC1A5 / Fold change vs veh, SLC1A5 / RFU, SLMO2 / Fold change vs veh, SLMO2 / RFU, ABCC4 / Fold change vs veh, ABCC4 / RFU, LOC101060439 /// RAP1B / Fold change vs veh, LOC101060439 /// RAP1B / RFU, RFX7 / Fold change vs veh, RFX7 / RFU, GTPBP10 / Fold change vs veh, GTPBP10 / RFU, CNEP1R1 / Fold change vs veh, CNEP1R1 / RFU, BIVM-ERCC5 /// ERCC5 / Fold change vs veh, BIVM-ERCC5 /// ERCC5 / RFU, ILF3 / Fold change vs veh, ILF3 / RFU 11762660_at / Fold change /veh 11762660_at / RFU VCAN (11757783_s_at) / Fold change /veh VCAN (11757783_s_at) / RFU DDX43 (11728927_at) / Fold change /veh DDX43 (11728927_at) / RFU KRT8 (11758188_x_at) / Fold change /veh KRT8 (11758188_x_at) / RFU NKD1 (11759106_at) / Fold change /veh NKD1 (11759106_at) / RFU SRD5A1 (11742802_a_at) / Fold change /veh SRD5A1 (11742802_a_at) / RFU TPSAB1 /// TPSB2 (11721975_s_at) / Fold change /veh TPSAB1 /// TPSB2 (11721975_s_at) / RFU GSTM3 (11746129_a_at) / Fold change /veh GSTM3 (11746129_a_at) / RFU IL23R (11737362_x_at) / Fold change /veh IL23R (11737362_x_at) / RFU TMEM51 (11727254_a_at) / Fold change /veh TMEM51 (11727254_a_at) / RFU PIWIL2 (11732686_x_at) / Fold change /veh PIWIL2 (11732686_x_at) / RFU ORM1 (11744905_x_at) / Fold change /veh ORM1 (11744905_x_at) / RFU CCDC152 (11743942_at) / Fold change /veh CCDC152 (11743942_at) / RFU ECM1 (11717891_a_at) / Fold change /veh ECM1 (11717891_a_at) / RFU IL23R (11748794_a_at) / Fold change /veh IL23R (11748794_a_at) / RFU TNFAIP8L3 (11732012_x_at) / Fold change /veh TNFAIP8L3 (11732012_x_at) / RFU MBOAT4 (11741988_at) / Fold change /veh MBOAT4 (11741988_at) / RFU 11764193_at / Fold change /veh 11764193_at / RFU TMEM53 (11763286_at) / Fold change /veh TMEM53 (11763286_at) / RFU MAGEB2 (11727129_at) / Fold change /veh MAGEB2 (11727129_at) / RFU TMEM200A (11744735_a_at) / Fold change /veh TMEM200A (11744735_a_at) / RFU CCDC152 (11751479_a_at) / Fold change /veh CCDC152 (11751479_a_at) / RFU FAM211A (11726209_a_at) / Fold change /veh FAM211A (11726209_a_at) / RFU RGS16 (11746705_a_at) / Fold change /veh RGS16 (11746705_a_at) / RFU VCAN (11755009_s_at) / Fold change /veh VCAN (11755009_s_at) / RFU RHOB (11743442_s_at) / Fold change /veh RHOB (11743442_s_at) / RFU RGS16 (11720943_a_at) / Fold change /veh RGS16 (11720943_a_at) / RFU RGS16 (11720944_at) / Fold change /veh RGS16 (11720944_at) / RFU, VPS4B / Fold change vs veh, VPS4B / RFU, CREB1 / Fold change vs veh, CREB1 / RFU, DNAJC13 / Fold change vs veh, DNAJC13 / RFU, GNAQ / Fold change vs veh, GNAQ / RFU, CDK5R1 / Fold change vs veh, CDK5R1 / RFU, ZRANB3 / Fold change vs veh, ZRANB3 / RFU, CUL4A / Fold change vs veh, CUL4A / RFU, CCNY / Fold change vs veh, CCNY / RFU, UFL1 / Fold change vs veh, UFL1 / RFU, COG3 / Fold change vs veh, COG3 / RFU, DIAPH2 / Fold change vs veh, DIAPH2 / RFU, SKA2 / Fold change vs veh, SKA2 / RFU, AFF3 / Fold change vs veh, AFF3 / RFU, LMF1 / Fold change vs veh, LMF1 / RFU, IPO11 / Fold change vs veh, IPO11 / RFU, DFFB / Fold change vs veh, DFFB / RFU, FOXP1 / Fold change vs veh, FOXP1 / RFU, CARD8 / Fold change vs veh, CARD8 / RFU, STRN3 / Fold change vs veh, STRN3 / RFU, ADK / Fold change vs veh, ADK / RFU, RASSF2 / Fold change vs veh, RASSF2 / RFU, WIPF1 / Fold change vs veh, WIPF1 / RFU, LARP1B / Fold change vs veh, LARP1B / RFU, RASA1 / Fold change vs veh, RASA1 / RFU, RB1 / Fold change vs veh, RB1 / RFU, PPFIA1 / Fold change vs veh, PPFIA1 / RFU, MAT2A / Fold change vs veh, MAT2A / RFU, CCT5 / Fold change vs veh, CCT5 / RFU, WDR92 / Fold change vs veh, WDR92 / RFU, CUX1 / Fold change vs veh, CUX1 / RFU, TTC7A / Fold change vs veh, TTC7A / RFU, TMEM135 / Fold change vs veh, TMEM135 / RFU, DEPTOR / Fold change vs veh, DEPTOR / RFU, CPM / Fold change vs veh, CPM / RFU, DNAJB6 / Fold change vs veh, DNAJB6 / RFU, CACNA2D3 / Fold change vs veh, CACNA2D3 / RFU, DTX4 / Fold change vs veh, DTX4 / RFU, TFCP2 / Fold change vs veh, TFCP2 / RFU, GMCL1 /// GMCL1P1 / Fold change vs veh, GMCL1 /// GMCL1P1 / RFU, AEBP2 / Fold change vs veh, AEBP2 / RFU, SNHG1 /// SNORD22 /// SNORD25 /// SNORD26 /// SNORD27 /// SNORD28 /// SNORD29 /// SNORD31 / Fold change vs veh, SNHG1 /// SNORD22 /// SNORD25 /// SNORD26 /// SNORD27 /// SNORD28 /// SNORD29 /// SNORD31 / Fold change (Aza/veh), C12orf56 (ProbeSet 11735607_a_at) / Fold change (ACY-1035/veh), C12orf56 (ProbeSet 11735607_a_at) / Fold change (Aza/veh), FGFR1OP (ProbeSet 11751329_s_at) / Fold change (ACY-1035/veh), FGFR1OP (ProbeSet 11751329_s_at) / Fold change (Aza/veh), VPS36 (ProbeSet 11739960_a_at) / Fold change (ACY-1035/veh), VPS36 (ProbeSet 11739960_a_at) / RFU SYPL1 (11715823_x_at) / Fold change /veh SYPL1 (11715823_x_at) / RFU IGFBP7 (11715501_s_at) / Fold change /veh IGFBP7 (11715501_s_at) / RFU REEP3 (11722064_at) / Fold change /veh REEP3 (11722064_at) / RFU IGLL1 (11728026_x_at) / Fold change /veh IGLL1 (11728026_x_at): dose or concentration left out as unconfirmed. Particulars: ProbeSet 11732165_x_at; LIST D.

On to `Nc1ncn([C@@H]2O[C@H](CO)[C@@H](O)[C@H]2O)c(=O)n1` [azacitidine], for which the “RFU, LMF1” value is 50.31 RFU.
